Source: patent US10292991B2, “Small molecule therapeutic compounds that reduce the incidence of intracerebral hemorrhage and brain microhemorrhages” (St. Michaels Hospital, priority 2016, dated 2019)
Read-outs that look alike come from different tables or passages of the source.

How the values were obtained:
[1] = test system: Cdh5 - exon2 morpholino-induced hemorrhage in zebrafish; assay: Cdh5 (VE-cadherin) morpholino-induced hemorrhage in zebrafish, rescue by drugs; format: in vivo, zebrafish (Danio rerio); conditions: result in words, no EC50
Procedure: Danieau buffer (58 mM NaCl, 0.7 mM KCl, 0.4 mM MgSO4, 0.6 mM Ca(NO3)2, 5.0 mM HEPES, pH 7.6) was used to dilute the MO solutions to 0.2 mM final concentration. Individual wells were placed on a 1.0% agarose plate, in which the embryos were positioned. Afterwards, the MO solution was injected through the cell yolk into embryos of 1 to 4 cell-stage. The injected quantities varied from 0.5 to 15 ng.
Panels A & B: Stable EC junctions are maintained by a Cdc42-dependent and VE-cadherin-mediated cell-cell adhesion. VE cadherins are found on the surfaces of EC cell-cell junctions. VE-cadherins are associated with β- and α-catenins at their cytoplasmic domains, which connect them to the actin-based cytoskeleton (blue circles). Cdc42 belongs to the Rho-family of small guanosine triphosphatases (GTPases), which are the main regulators of VE-cadherin-based cell-cell adhesion. The functions of hmgcrb, βPix, and pak2a in regulating junctional stability in zebrafish are shown. HNGCR mediated GGPP biosynthesis regulates Cdc42 prenylation. βPix is a GEF that increases CDC42 affinity for GTP. Pak2 is an effector of Cdc42, which regulates actin filament organization.
Suppression of VE-cadherin induces hemorrhage.

[2] = test system: zebrafish embryos treated with LPS; assay: LPS-induced ICH/BMH and mortality in zebrafish embryos; format: in vivo; conditions: 1 μmol/L in fish water; LPS 200 mg/mL; preliminary data
Procedure: Experiment 1: LPS-induced ICH/BMH in zebrafish embryos. The lead compounds will be tested in a LPS model of ICH/BMH to determine if rescue of the ICH/BMH phenotype is a general property of these compounds or it is specific to statin-induced ICH/BMH. […] LPS concentration used was 200 mg/mL. […] Experiments are ongoing to define the rescuing effects of artemether on LPS-induced brain hemorrhage. Double transgenic zebrafish (Gata1:DsRed/Flk1:GFP) with green fluorescent vessel and red fluorescent red blood cells are used. Arrow points to hemorrhage.

[3] = test system: LPS-induced brain microbleeds in mice; assay: LPS-induced microbleeding mouse model; format: in vivo, C57BL/6 mice
Excerpt: An LPS-mediated micro bleeding model was created similar to that described in Lui et al (Liu S, Grigoryan M M, Vasilevko V et al. Comparative analysis of H&E and Prussian blue staining in a mouse model of cerebral microbleeds. J Histochem Cytochem 2014; 62:767-773). 9-10 week old C57BL/6 mice of both sexes were purchased from Charles River, and randomly assigned to control or treatment groups in equal numbers. LPS from Salmonella enterica (Sigma Aldrich, St Louis, Mo.) was reconstituted with PBS to a final concentration of 5 mg/ml. Both control (n=16) and drug treatment (n=16) groups received injections of 5 mg/kg LPS at times 0 and 24 hrs. The drug treatment group, further divided into high dose (n=4) and low dose (n=12), received intraperitoneal injections of artemether (ARM) (25 mg/kg for Low dose and 100 mg/kg for High dose) at time points −72, −48, −24, 0 and 24 hrs of LPS treatment. All mice were sacrificed at 48 hrs after the first LPS injection.
LPS-induced microbleeding model: All mice in the LPS study were deeply anesthetized with ketamine and xylazine and perfused through the left cardiac ventricle with NaCl, 0.9%, followed by 4% paraformaldehyde (PFA) in 1×PBS buffer and 2 mM Gadoteridol contrast agent for 24 hours. Each brain was transferred into a 1×PBS+0.02% sodium azide and 2 mM Gadoteridol contrast agent. Brains were kept in this immersion solution for 14 days before imaging to ensure proper contrast diffusion in the brain for magnetic resonance imaging (MRI) scan. […]
For the integrin ICH model, brains were taken out of the skull, cut at the mid-coronal position and assessed in a binary manner for whether or not there was any evidence of ICH. […]
Brains were scanned using 7T Burker MRI with 16-channel solenoid coils. […] Following the reconstruction of images and applying image distortion correction algorithms, all brains were processed and analyzed for total volume of brain and total volume of hemorrhage. Quantification was done using percentage of bleeding (normalized to each brain size). […] Lastly, quantification was done in a blinded fashion. […]

[4] = test system: brain hemorrhage induced by 1 μM atorvastatin in zebrafish; assay: Atorvastatin-induced brain hemorrhage (ICH) model in zebrafish, rescue by drugs; conditions: for EC50: Danio rerio
Procedure: Zebrafish were set up the night before the experiment day. In the morning of the experimental day, we put breeders together for mating and fertilization. 6 hours post-fertilization (hpf), statins was added into a 96-well plate holding 100 μl water with 7 to 8 fish eggs in each well, which was optimized through a serial pilot experiments. Statins were dissolved in DMSO and diluted with 0.5% of DMSO water into a working solution. 100 μl water containing 0.5% of DMSO was the medium for all wells in the final assessment.
For screening NIH compound libraries, 5 μM of each of the drugs from the library was added at 24 hpf into wells containing fish eggs treated with 1 μM ATV since 6 hpf. Hemorrhage positive control wells were treated with ATV but not treated with any drugs. Negative controls were not treated with any chemicals (fish with 0.5% of DMSO water). Geranylgeranyl pyrophosphate (GGPP, 4 mg/L) was used as positive rescue control.
Brain hemorrhage was assessed 72 hpf (66 hours after addition of statins) using stereomicroscopy by two observers. Percentage of brain hemorrhage was used as final readout. Compounds showing more than 70% of rescue of the brain hemorrhages in the initial test were re-tested to generate a final list of hits from the library.
All subsequent EC50 assays of positive compounds were performed with protocols established and optimized during the screening.

In the case of `CO[C@H]1O[C@@H]2O[C@@]3(C)CC[C@H]4[C@H](C)CC[C@@H]([C@H]1C)[C@@]24OO3` [Artemether], the “Rescue of hemorrhage induced by Cdh5 - exon2 morpholino” value ([1]; listed as ARM) is reported as “rescue was observed”, the “Rescue of hemorrhage induced by Cdh5 - exon2 morpholino” value ([1]; listed as ARM (Sigma)) is reported as “Rescue effect” and the “Effect on fish survival (LPS-induced mortality)” value [2] is reported as “protective effect”. For the same compound, the “Total number of microbleeds inside the brain (H&E slices)” value ([3]; LPS+ARM vs LPS, n=8, P<0.01) was “significantly reduced”, the “Total surface microbleeds (stereomicroscope count)” value ([3]; LPS+ARM vs LPS, n=8, P<0.05) was “robust reduction” and the “Reduction of bleeding (MRI, total microbleed volume normalized to brain volume)” value ([3]; vs model control group, n=8, P<0.05) was “about ⅔”. The “Hemorrhage in zebrafish treated with 1 μmol/L atorvastatin and drug” value ([4]; 500 nmol/L drug, 3 dpf) was “no hemorrhage was observed”, the “Efficacy on atorvastatin Hemorrhage” value ([4]; ATV model induced by 1 μmol/L atorvastatin, inhibition of hemorrhage) was “+++++ (One + sign represents 20% inhibition on 1 μmol/L ATV or β-Pix MO-induced hemorrhage.)” and the EC50 ([4]; read-out: EC50 (in nmol/L) on atorfvastatin model (μmol/L)) was 64 nmol/L. The EC50 ([4]; read-out: EC50 to rescue brain hemorrhage, Statin Model) was 24.7 nmol/L.
